Experiments:
Format in all cases: tissue-based
[1] = molecular target: Kappa-type opioid receptor (Rattus norvegicus, UniProt P34975); experiment: Binding affinity towards KOR (Opioid receptor kappa 1) using [3H]CI977 as radioligand in rat brain
[2] = molecular target: Delta-type opioid receptor (Rattus norvegicus, UniProt P33533); experiment: Binding affinity towards Opioid receptor delta 1 using [3H]CI-DPDPE as radioligand in rat brain
Mu-type opioid receptor = Mu-type opioid receptor (Rattus norvegicus, UniProt P33535); experiment: Binding affinity towards Opioid receptor mu 1 using [3H]naloxone as radioligand in rat brain
Chain of Mu-type opioid receptor (P33535 whole entry): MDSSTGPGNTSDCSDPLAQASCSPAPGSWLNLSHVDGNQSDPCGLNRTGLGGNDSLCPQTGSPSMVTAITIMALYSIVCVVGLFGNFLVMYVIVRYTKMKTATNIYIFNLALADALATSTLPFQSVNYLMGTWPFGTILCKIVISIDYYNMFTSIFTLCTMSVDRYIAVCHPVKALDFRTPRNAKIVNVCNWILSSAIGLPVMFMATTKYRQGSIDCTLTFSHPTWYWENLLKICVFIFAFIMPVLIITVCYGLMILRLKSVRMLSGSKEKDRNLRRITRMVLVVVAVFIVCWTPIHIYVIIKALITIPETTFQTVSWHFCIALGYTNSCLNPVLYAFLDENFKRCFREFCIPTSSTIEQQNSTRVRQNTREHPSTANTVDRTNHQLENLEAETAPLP

Chain of Kappa-type opioid receptor (P34975 whole entry): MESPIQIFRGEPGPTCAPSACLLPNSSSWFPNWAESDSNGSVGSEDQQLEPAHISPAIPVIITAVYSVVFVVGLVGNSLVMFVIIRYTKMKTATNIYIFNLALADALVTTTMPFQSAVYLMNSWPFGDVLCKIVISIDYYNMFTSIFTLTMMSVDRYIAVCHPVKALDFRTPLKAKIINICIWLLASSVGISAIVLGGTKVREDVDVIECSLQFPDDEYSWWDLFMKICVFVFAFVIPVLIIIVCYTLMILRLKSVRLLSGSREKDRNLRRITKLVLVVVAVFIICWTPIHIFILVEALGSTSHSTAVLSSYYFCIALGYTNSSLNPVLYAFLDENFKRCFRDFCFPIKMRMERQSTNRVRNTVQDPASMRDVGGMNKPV
Chain of Delta-type opioid receptor (P33533 whole entry): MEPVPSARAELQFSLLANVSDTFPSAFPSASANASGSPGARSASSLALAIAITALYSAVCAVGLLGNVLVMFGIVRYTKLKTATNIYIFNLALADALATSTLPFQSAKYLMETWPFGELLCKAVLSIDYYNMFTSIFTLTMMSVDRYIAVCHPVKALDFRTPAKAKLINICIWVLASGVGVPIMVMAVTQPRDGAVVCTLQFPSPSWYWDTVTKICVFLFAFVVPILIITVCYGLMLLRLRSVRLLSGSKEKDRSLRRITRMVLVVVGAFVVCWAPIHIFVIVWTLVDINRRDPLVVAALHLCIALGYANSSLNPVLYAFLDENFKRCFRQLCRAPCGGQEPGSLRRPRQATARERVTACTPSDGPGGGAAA

SMILES: CN1CC2C(=O)C(C1)C(c1ccccn1)N(C)C2c1ccccn1 (stereo not drawn)
- Ki [1]: 15 nM
- Ki [2]: > 10000 nM
- Ki (Mu-type opioid receptor): > 1000 nM

From ChEMBL document CHEMBL1136754, “Mechanism of action of the diazabicyclononanone-type kappa-agonists” (J Med Chem, 2003)
